Results on 4 molecules are retold here after US20240382548A1, “COMPOSITIONS COMPRISING CASTANEA SATIVA EXTRACTS FOR TREATMENT OF HELICOBACTER PYLORI INFECTIONS” (priority 2021, published 2024).

Data set [1] concerns IL-8 release induced by H. pylori in GES-1 cells. Briefly: IL-8 release induced by H. pylori in GES-1 cells. The following applies: for effect on IL-8 release induced by the pathogen: 10-50 μM. Type of data set: cell-based, human. As for the experimental part: At the same concentrations, the extract inhibits IL-8 release induced by H. pylori in GES-1 cells; the pathogen induces IL-8 release in gastric epithelial cells, of about a 20-fold increase compared with the unstimulated control. […] EGCG 50 μM (50% inhibition) was used as a positive control.

In data set [2] the test system is nuclear transcription factor NF-κB. The data set is described as follows: NF-κB-guided transcription (luciferase reporter) induced by H. pylori. It counts as cell-based. The following applies: 50 μM, positive control. How it is done: The nuclear transcription factor NF-κB is involved in inflammation of the gastric epithelium induced by H. pylori and is also responsible for increased expression of pro-inflammatory genes, including IL-8, in the gastric cells. […] The cells were 20 subjected to transient transfection with a plasmid containing three KB responsive sites upstream of the gene encoding for luciferase; the cells then underwent treatment with the pathogen, and the transcription was measured after 6 hours by luminescence.

For another data set, the system named is H. pylori. The data set is described as follows: Antibacterial activity (MIC) on a strain of H. pylori. It counts as cell-based. The conditions noted are these: Helicobacter pylori; for MIC: read-out: MIC on H. pylori. How it is done: The antibacterial activity of the chestnut extract was evaluated by measuring the MIC (Minimum Inhibitory Concentration) on a strain of H. pylori.

The subject of data set [3] is non-tumoral human gastric epithelial cells GES-1. It counts as cell-based. The conditions noted are these: 10-50 μM concentration range. As for the experimental part: Firstly, the extract was analysed to establish its possible cytotoxicity (using the MTT colorimetric assay) towards non-tumoral human gastric epithelial cells GES-1 in the presence of H. pylori (ratio 1:50).

Structures are written as SMILES. In brackets after ≈: the same amount, converted by molar mass. Where two headings read alike, the source gives them in different places.

Regarding `O=C(O[C@@H]1Cc2c(O)cc(O)cc2O[C@@H]1c1cc(O)c(O)c(O)c1)c1cc(O)c(O)c(O)c1` [EGCG, epigallocatechin gallate, reference compound], the “inhibition of IL-8 release” value in data set [1] (50 μM, positive control) is given as 50%. The “inhibition of NF-κB-guided transcription” value in data set [2] was 63%.

For orientation: inhibition means how much of the control response was suppressed. Consider `CN(C)[C@@H]1C(O)=C(C(N)=O)C(=O)[C@@]2(O)C(O)=C3C(=O)c4c(O)cccc4[C@@](C)(O)[C@H]3C[C@@H]12` [Tetracycline, reference compound], for which the inhibition at 0.25 µg/mL with H. pylori (0.25 μg/mL, positive control, read-out: inhibition of the growth of the pathogen) amounted to 80%.

As usually defined, the MIC is the smallest concentration in the dilution series that meets the test's criterion for growth inhibition. With `O=C1OC[C@H]2OC(=O)c3cc(O)c(O)c(O)c3-c3c(O)c(O)c(O)c4c3C(=O)O[C@H]([C@H]3OC(=O)c5c-4c(O)c(O)c(O)c5[C@H]3O)[C@@H]2OC(=O)c2cc(O)c(O)c(O)c2-c2c1cc(O)c(O)c2O` [castalagin], the toxicity entry in data set [3] is given as “did not exhibit any toxicity”. Further, the “effect on IL-8 release induced by the pathogen” value in data set [1] is “concentration-dependent inhibition”. Further, the MIC in the data set on H. pylori (same experimental conditions as the extract) was 25 µM (≈ 23.4 µg/mL).

Take `O=C1OCC2OC(=O)c3cc(O)c(O)c(O)c3-c3c(O)c(O)c(O)c4c3C(=O)OC(C2OC(=O)c2cc(O)c(O)c(O)c2-c2c1cc(O)c(O)c2O)C1OC(=O)c2c-4c(O)c(O)c(O)c2C1O` (stereo not drawn) [vescalagin]: in data set [3], the toxicity result was “did not exhibit any toxicity”. Besides, the “effect on IL-8 release induced by the pathogen” value in data set [1] is reported as “concentration-dependent inhibition”. In the data set with H. pylori, the minimal inhibitory concentration (MIC) was 25 µM (≈ 23.4 µg/mL).
